The record followed here is publication PMC8665362, “Identification of small-molecule allosteric modulators that act as enhancers/disrupters of rhodopsin oligomerization” (The Journal of Biological Chemistry, 2021).

Marks after values point to notes of the source that are not given here.

In one series the target is T1, bovine rhodopsin (Bos taurus, UniProt P02699).
T1 construct: The washed ROS with isotonic and hypotonic buffers was used as described above; from tissue; host or cells: bovine rod outer segments (ROS)
The series is described as follows: rhodopsin Meta II decay assay (Trp265 intrinsic fluorescence). The following applies: 100 μM compound; for Meta II decay rate (slope of intrinsic fluorescence over 150 s) relative to DMSO control: bleached rhodopsin, p < 0.0001. Here is the method:
However, oligomerization of isorhodopsin could affect the chromophore release from opsin. The chromophore release can be measured sensitively by the light-induced increase in intrinsic fluorescence of the Trp^265 residue that occurs upon release of the chromophore after illumination ([43]).
The washed ROS with isotonic and hypotonic buffers was used as described above. The solubilized rhodopsin at 1.05 mg/ml in 20 mM 1,3-bis(tris(hydroxymethyl)methylamino) propane, pH 6.9, 100 mM NaCl, and 1 mM LMNG buffer was incubated for 5 min at 20 °C with 0.7 μl of 100 mM stock solutions of the nine identified hit compounds (100 μM final concentration) in DMSO and centrifuged at 1000g for an additional 5 min. Next, photobleaching was carried out with a 150-W fiber light delivered through a 480 to 520 nm band pass filter (Chroma Technology) for 10 s. Samples were subjected to fluorescence measurements acquired through 150 s in triplicate. The results were analyzed with an L55 luminescence spectrophotometer (PerkinElmer) operating at excitation and emission wavelengths of 300 nm and 335 nm, respectively.

Series [1] has as its system rod photoreceptors of isolated mouse retinas. The series is described as follows: ex vivo ERG of isolated mouse retinas (rod light responses). Format: cell-based, mouse (C57BL/6J). The conditions noted are these: 250 μM compound. From the text:
We determined the impact of compound #7 (representative disrupter of rhodopsin dimerization) and compound #1 (representative enhancer) on the sensitivity and kinetics of rod light responses, using ex vivo electroretinogram (ERG) analysis of isolated mouse retinas (Experimental procedures). This technique allows robust recordings from intact retinas and is well suited for quantitative investigation of mouse phototransduction ([48], [49], [50], [51], [52], [53]).
Ex vivo ERG recordings were conducted with isolated retinas of C57Bl/6J mice, as described ([41], [62], [63]). Mice were dark-adapted overnight and euthanized by CO2 asphyxiation, and whole retinas were dissected under dim red light. Before recordings, retinas were incubated for 5 h in Ames’ medium (Sigma-Aldrich) inside a light-tight box that was supplied with humidified 95% O2/5% CO2. For control retinas, 0.1% DMSO was added to the incubation medium, and for others, the incubation medium contained either 250 μM F2502-0030 (compound #1) or F5897-0190 (compound #7). These compounds were first dissolved in DMSO at 250 mM concentration, and 0.1% of this stock solution was added to the incubation medium (Ames’ medium). Stock solution was stored at −20 °C and used within a week. After incubation, retinas were placed on the ex vivo ERG specimen holder and perfused with Ames’ medium (saturated with 95% O2/5% CO2) at 1.5 ml/min at 35 °C. Ames’ medium was supplemented with 100 μM BaCl2 and 40 μM DL-AP4 (Tocris Bioscience) to isolate the photoreceptor component of the ERG signal. Responses were recorded to 5 ms flashes of light (630 nm) ranging from 276 to 308,534 photons μm^−2, corresponding to 1 to 1100 photons μm^−2 at 500 nm ([64]). Sensitivity of rod photoreceptors was determined in three ways: (1) sF = peak amplitude of dim flash response divided by flash energy (1 photon μm^−2); (2) SF = sF/Rmax, where Rmax is the maximal response amplitude measured at the plateau from a saturated rod response; (3) I1/2: flash energy required to elicit 50% of the Rmax determined by fitting a Naka-Rushton function to flash energy-amplitude data.

The subject of series [2] is individual rod photoreceptors. The series is described as follows: single-cell suction electrode recording from rod outer segments. Format: cell-based, mouse (C57BL/6J). The conditions noted are these: long incubation time during sample preparation for single-cell recording. As for the experimental part: Because it is possible that reduction of Rmax by compound #1 is due to some effect(s) on the rod photoreceptor inner segment currents that are not directly related to phototransduction ([51], [52]), we conducted also single-cell suction electrode recordings from the ROS from samples that were incubated either in the control medium or in the medium containing enhancer compound #1. The results from single cell recordings were similar to those obtained using ex vivo ERG: Rmax and fractional sensitivity were decreased from 12 (±0.4) to 9 (±0.3) pA and from 3.0 (±0.5) to 1.8 (±0.1)% per photon μm^−2, respectively, by rhodopsin dimerization–enhancing hit #1 (Fig. 6, A–C). Like the ex vivo ERG recordings, light response kinetics was not affected by compound #1 in the single-cell recordings (Fig. 6D).
Suction electrode recordings from individual rod photoreceptors of dark-adapted C57BL/6J mice were conducted as described previously ([65]). Before recordings, isolated retinas were incubated in the control medium (Ames’ medium + 0.1% DMSO) or in the hit compound–containing medium (Ames’ medium +250 μM F2502-0030 (#1)) as described above for ex vivo ERG experiments. After incubation, one half of the retina was chopped with a razor blade and transferred into a chamber where it was perfused at 1 ml/min with Ames’ medium saturated with 95% O2/5% CO2 at 35 °C. Recordings were made from a single ROS, using borosilicate glass electrodes with ∼1.5-μm opening (resistance ∼2 MΩ at 35 °C). The pipette solution was Hepes buffered Ames’ medium composed of 0.88 g Ames’ powder (A1420, Sigma-Aldrich), 0.357 g Hepes (Sigma-Aldrich), and 58.44 mg NaCl in […] distilled and vacuum-filtered water. The pH was adjusted to 7.4 with NaOH. Light responses were recorded to flashes of light ranging from 8 to 700 photons μm^−2 at 500 nm. For analysis, data were low-pass filtered using an 8-pole Bessel filter with cut-off frequency at 30 Hz.

For series [3], the target named is T2, rhodopsin (isorhodopsin) dimerization (Homo sapiens, UniProt P08100). The series is described as follows: rhodopsin β-gal fragment complementation assay in U2OS opsin-EA/opsin-PK cells. Format: cell-based. Further details: expressed in transfected cells. The conditions noted are these: for EC50: U2OS opsin-EA/PK cells regenerated with 9-cis-retinal, triplicates, read from Fig. 3A,D. The text has this: (§1) To identify small molecules that target rhodopsin dimerization, a cell-based high-throughput screening (HTS) assay was used to screen a diverse library of 50,000 compounds from Life Chemicals. The human osteosarcoma (U2OS) stable cell line was used, which expresses opsin fused with complimentary subunits of β-galactosidase (β-gal), namely, the enzyme acceptor large β-gal subunit (EA) and the enzyme donor, small subunit of β-gal (PK). Upon rhodopsin self-association in vitro, a competent β-gal was formed and chemiluminescent signal was generated in the presence of β-gal substrate (Fig. 1A). For further validation, the β-gal activity assay was used to counter-screen and rule out false positives, affecting the activity of β-gal without affecting rhodopsin (Fig. 1B) ([34]). In an orthogonal assay, rhodopsin dimerization was assessed using a bioluminescence resonance energy transfer (BRET) assay with human embryonic kidney 293 cells expressing opsin fused with Renilla luciferase and opsin fused with Venus (Fig. 1C) ([35], [36]). To form functional visual pigment, opsin-fused proteins were regenerated with 9-cis-retinal to form so-called isorhodopsin ([37]). We chose 9-cis-retinal over photoreceptor-endogenous 11-cis-retinal because of its availability and the prohibitive cost for HTS assays with the native chromophore. Rhodopsin and isorhodopsin have similar biochemical and spectral properties (see ([38])).
All 50,000 compounds were screened, using the β-gal complementation assay at a final concentration of 60 μM with a Z′ factor of 0.75 ± 0.01 and a signal-to-background (S/B) ratio of 123 ± 14.4 (Fig. 2A) ([39]). The activity scores were calculated according to the following equation: (RLU(compound)−RLU(positivecontrol))/(RLU(negativecontrol)−RLU(positivecontrol))×100.
The positive control comprised U2OS cells transfected with both opsin-EA and opsin-PK, mimicking dimer formation (with a 0% score value), and the negative control comprised U2OS cells transfected with opsin-EA only, mimicking disrupted dimer formation (with a 100% score value).
In this study, cultured U2OS opsin-EA and opsin-PK cells were diluted to 2 × 10^5 cells/ml in the culture medium containing 10% fetal bovine serum (Thermo Fisher Scientific) and 1% penicillin-streptomycin 10,000 U/ml (Thermo Fisher Scientific). Cell diluent of 20 μl/well was dispensed into a white ViewPlate-384 (PerkinElmer) using the EL406 plate dispenser (BioTek). As a control, we used U2OS opsin-EA–only expressing cells as a positive control for dimerization disruption generating a minimal luminescence signal, as previously described ([41]). The plates were cultured overnight at 37 °C in 5% CO2, and the next day, under a dim red light, cells were treated with 5 μl/well of 9-cis-retinal (Sigma-Aldrich) at 7.5 μM final concentration. Plates were covered with aluminum foil and cultured overnight at 37 °C in 5% CO2. Next, cells were treated with each of the 50,000 library compounds (Life Chemicals Inc) at a final concentration of 57.6 μM, using a JANUS automated workstation (PerkinElmer), followed by incubation overnight at 37 °C, covered with aluminum foil. The next day, cells were treated with Galacton-Star chemiluminescent substrate (23 μl/well; Thermo Fisher Scientific). The plates were covered with foil and incubated at 20 °C for 2 h, followed by luminescence reading with the EnSpire multimode plate reader (PerkinElmer). Measurements were evaluated with the lowest value being defined as −50% (dimer enhancers) and the highest value as 100% (dimer disrupters) in the compound dataset. All experiments were done under red-light conditions. Identified compounds were retested in triplicates ranging from 180 μM down to 2.4 nM concentrations.

The target in series [4] is T2, rhodopsin (isorhodopsin) dimerization. Kind of series: rhodopsin dimerization BRET assay in HEK293 opsin-Rluc/opsin-Venus cells. The series is classed as cell-based. The following applies: for EC50: HEK293 opsin-Rluc/opsin-Venus cells regenerated with 9-cis-retinal, triplicates, read from Fig. 3B,E. Details: expressed in transfected cells; host or cells: HEK293 (human embryonic kidney 293) opsin-Rluc / opsin-Venus cell lines.
Description: as §1
Identified hits from the β-gal complementation assay were subjected to the previously developed BRET assay, using human embryonic kidney 293 opsin–Renilla luciferase and opsin-Venus cell lines ([37]). Cultured cells were diluted to 2 × 10^5 cells/ml in the medium containing 10% fetal bovine serum (Thermo Fisher Scientific) and 1% penicillin-streptomycin (10,000 U/ml; Thermo Fisher Scientific), and 20 μl/well of the cell diluent was dispensed into a white ViewPlate-384 (PerkinElmer). Cells were cultured overnight at 37 °C in 5% CO2, and under a dim red light, cells were treated with 9-cis-retinal at 7.5 μM final concentration. The next day, cells were treated with the identified hit compounds from the β-gal complementation assay at 180 μM down to 2.4 nM concentrations, and 1 μM final concentration of TM5 peptide ([…]-NH2; EZBiolab) serving as the control. On the following day, the culture medium was aspirated and replaced with 90 μl/well of PBS containing pivaloyloxymethyl acetoxycoelenterazine h (Dalton Research Molecules) at 600 μM concentration followed by incubation at 20 °C for 40 min ([35]). Dual luminescence readings at 480 and 530 nm were performed using a SpectraMax L plate reader with the BRET1 filter set (Molecular Devices).
(In BRET a luciferase serves as donor, and the signal depends on an acceptor being close.)

T1 sequence (P02699 whole entry): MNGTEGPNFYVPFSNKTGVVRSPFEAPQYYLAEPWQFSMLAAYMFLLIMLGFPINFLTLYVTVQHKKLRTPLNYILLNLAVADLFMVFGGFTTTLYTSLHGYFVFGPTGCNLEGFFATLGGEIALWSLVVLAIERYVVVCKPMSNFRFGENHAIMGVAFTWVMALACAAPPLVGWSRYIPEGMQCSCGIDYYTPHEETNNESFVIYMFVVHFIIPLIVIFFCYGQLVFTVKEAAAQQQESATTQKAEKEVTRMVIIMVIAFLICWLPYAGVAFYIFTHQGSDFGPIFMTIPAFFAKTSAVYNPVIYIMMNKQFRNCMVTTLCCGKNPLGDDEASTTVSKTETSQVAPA
T2 sequence (P08100 whole entry, the tested form may be a part): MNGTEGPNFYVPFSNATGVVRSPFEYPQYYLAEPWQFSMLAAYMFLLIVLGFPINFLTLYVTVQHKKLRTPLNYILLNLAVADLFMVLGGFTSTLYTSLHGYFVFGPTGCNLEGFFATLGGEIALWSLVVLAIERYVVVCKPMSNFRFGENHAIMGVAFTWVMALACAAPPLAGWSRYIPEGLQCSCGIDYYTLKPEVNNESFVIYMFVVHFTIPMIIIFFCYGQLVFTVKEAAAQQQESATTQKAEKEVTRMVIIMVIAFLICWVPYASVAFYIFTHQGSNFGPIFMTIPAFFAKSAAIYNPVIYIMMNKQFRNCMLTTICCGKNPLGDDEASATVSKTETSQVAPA

In the case of `Cc1onc(-c2ccccc2Cl)c1C(=O)Nc1cccc2ccc(-n3ccnc3)nc12` [#7], the “Meta II decay rate (slope of intrinsic fluorescence over 150 s) relative to DMSO control” value at bovine rhodopsin is recorded as “statistically significant signal reduction”. In addition, the “effect on kinetics of rod light responses” value in series [1] is listed as “marked deceleration of light responses”. Besides, in series [1] (5 h incubation, N = 4 retinas), the Rmax is listed as 550 ± 40 μV. Also, the “half-saturating I1/2 from best-fitting Michaelis–Menten equation to mean normalized amplitudes” value in series [1] (Fig. 5F) worked out at 34 photons μm^−2. In addition, in series [1] (N = 4), the “SF (fractional sensitivity, sF/rmax)” value is 4.0 ± 0.3 ^a %/photons∙μm^−2 and the “sF (absolute sensitivity)” value is 18 ± 6 ^a μV/photons∙μm^−2. The I1/2 in series [1] (from individual retinas, N = 4) was 35 ± 3 ^a photons∙μm^−2. Moreover, the tp in series [1] (time-to-peak of dim flash (1 photon μm^−2), N = 4) was 910 ± 100 ^a ms. Further, in series [2], the “damage to photoreceptor cells” value is “caused damage to the photoreceptor cells”.
For orientation: EC50 means the concentration needed to bring the measured effect to its halfway point. High values mean weaker potency, low ones greater potency. With `CCOc1ccccc1-n1nnc(-c2nn3c(Cc4ccccc4)nnc3s2)c1C` [#6], the “Meta II decay rate (slope of intrinsic fluorescence over 150 s) relative to DMSO control” value on bovine rhodopsin is “statistically significant signal reduction”. Also, the EC50 stood at 30 µM in series [3] and 13.6 µM in series [4].
On to `O=C(CCCCn1c(=O)c2ccccc2n(Cc2ccccc2)c1=O)NCc1cccs1` [#4], for which, in series [3], the “effect on dimerization in the β-gal complementation assay” value is on record as “disrupted dimerization”. The “effect on dimerization in the BRET assay” value in series [4] is “enhanced dimerization”.
For `O=C(NCCc1ccsc1)c1cc(-c2ccco2)on1` [#2], the EC50 in series [3] is 1.2 µM; in series [4], 4 µM.
As for `NC(=O)c1oc2ccccc2c1NC(=O)c1ccc(Oc2ccccc2)cc1` [#8], the “Meta II decay rate (slope of intrinsic fluorescence over 150 s) relative to DMSO control” value at bovine rhodopsin is reported as “statistically significant signal reduction”. Further, the EC50 in series [3] amounted to 16.5 µM; in series [4] it was 20.5 µM.
Consider `COc1ccc(S(=O)(=O)N(C(C)=O)c2cc3sc(=O)oc3c3ccccc23)cc1` [#5], for which the half-maximal effective concentration (EC50) in series [3] amounted to 31.3 µM; in series [4] it was 5.53 µM.
For `Cc1c(C(=O)N(Cc2cccnc2)c2nc3c(F)cccc3s2)cnn1-c1ccccc1` [#9], the “Meta II decay rate (slope of intrinsic fluorescence over 150 s) relative to DMSO control” value at bovine rhodopsin is listed as “statistically significant signal reduction”. The EC50 stood at 10.5 µM in series [3] and 17.7 µM in series [4].
Regarding `O=C(Nc1ccc(CC(=O)N2CCC(O)CC2)cc1)c1cc(-c2ccco2)on1` [#3], the “light-induced increase in Trp265 intrinsic fluorescence vs DMSO-treated isorhodopsin” value on bovine rhodopsin is “significantly quenched”. In addition, on bovine rhodopsin, the “Meta II decay rate (slope of intrinsic fluorescence over 150 s) relative to DMSO control” value is listed as “statistically significant signal reduction”. For the same compound, the EC50 in series [3] is 23.9 µM; in series [4], 7.87 µM.
